Measured values published in article PMC13083723 (Patterns, 2026).

Test system: Vero-E6 cells
Experiment: cells
Type: cell-based
Settings: Chlorocebus sabaeus, Vero C1008, 24 h, read-out: PL_Result

SMILES | activation at 10 µM [%]
CC(C)[C@@H](C)/C=C/[C@@H](C)[C@H]1CC[C@H]2C3=CC=C4C[C@@H](O)CC[C@]4(C)[C@H]3CC[C@]12C [SPE_K09161066] | -4.6
OC(CN1CCN(c2cccc(Cl)c2)CC1)C(c1ccccc1)c1ccccc1 (stereo not shown) [SPE_A51829654] | -10.3
COc1ccc(OC)c(C(O)CNC(=O)CN)c1 (stereo not shown) [SPE_A79981887] | 8.02
Nc1ncnc2c1ncn2C1CCCO1 (stereo not shown) [SPE_A56987319] | 0.343
OC[C@H]1O[C@@H](c2ccc(Cl)c(Cc3ccc(O[C@H]4CCOC4)cc3)c2)[C@H](O)[C@@H](O)[C@@H]1O [SPE_K53765467] | -10
CC(=O)Nc1ccc(CC(=O)O)cc1 [SPE_K33483813] | 2.74
CC1Cc2ccccc2N1NC(=O)c1ccc(Cl)c(S(N)(=O)=O)c1 (stereo not shown) [SPE_A95869247] | -11.5
COc1cc2c(cc1OC)[C@@H]1CC(=O)[C@@H](CC(C)C)CN1CC2 [SPE_K95739795] | -5.22
Oc1ccc([C@H]2COc3cc(O)ccc3C2)cc1 [SPE_K54847683] | -12.7
c1ccc(Cn2c(-c3ccc(OC[C@H](C4CCNCC4)n4c(-c5ccccc5)nc5ccccc54)cc3)nc3ccccc32)cc1 [SPE_K90830492] | 1.3
C[C@]12CC[C@H]3[C@@H](CCC4=CC(=O)CC[C@@]43C)[C@@H]1CC[C@@H]2C(=O)CO [SPE_K98521173] | -5.9
Cc1cccc(C)c1NC(=O)C(C)N (stereo not shown) [SPE_A92670106] | -8.17
Cc1cc2nc3c(=O)[nH]c(=O)nc-3n(C)c2cc1C=O [SPE_K00486786] | -6.31
Cc1ncc(CO)c(C=O)c1O [SPE_K76204040] | -1.79
CCC1NC(=O)c2cc(S(N)(=O)=O)c(Cl)cc2N1 (stereo not shown) [SPE_A59303141] | -4.81
O=C(O)C1CN(CCCP(=O)(O)O)CCN1 (stereo not shown) [SPE_A60832661] | -0.285
COc1ccc(CCN(C)CCCN2CCc3cc(OC)c(OC)cc3CC2=O)cc1OC [SPE_K92446736] | -9.23
CC(=O)c1ccc2c(c1)N(CCCN1CCN(CCO)CC1)c1ccccc1S2 [SPE_K42938903] | 52.6
CCOC(=O)Nc1ccc(NCc2ccc(F)cc2)cc1N [SPE_K89917372] | -6.22
CCOC(=O)c1cc(C#N)c(N2CCC(C(=O)NS(=O)(=O)Cc3ccccc3)CC2)nc1C [SPE_K77060810] | -0.985
OC[C@H]1O[C@@H](OCCc2ccc(O)cc2)[C@H](O)[C@@H](O)[C@@H]1O [SPE_K66030860] | -4.58

SMILES | activation at 10 µM [%]
COc1ccc2cc([C@H](C)C(=O)O)ccc2c1 [SPE_K59197931] | -3.31
CN1C(=O)OC(C)(C)C1=O [SPE_K16606819] | -11.7
O=C(O)CCCCN(CCc1ccccc1OCc1ccc(CCc2ccccc2)cc1)Cc1ccc(C(=O)O)cc1 [SPE_K73440166] | 2.18
NCCCCCCCCCCNS(=O)(=O)c1cccc2c(Cl)cccc12 [SPE_K03301001] | 2.75
NC(=O)C[C@H](N)C(=O)O [SPE_K06665116] | -6.33
CN(C)CCc1c[nH]c2ccc(CS(=O)(=O)N3CCCC3)cc12 [SPE_K67601717] | -4.95
c1ccc(CNCc2ccc(CN3CCCNCCNCCCNCC3)cc2)nc1 [SPE_K03019184] | -0.191
CCCCOc1nc(N)c2c(n1)N(Cc1cccc(CN3CCCC3)c1)CC(=O)N2 [SPE_K73585091] | -10.5
C[C@H](CCC(=O)O)[C@H]1CC[C@H]2[C@@H]3C[C@H](O)[C@@H]4C[C@H](O)CC[C@]4(C)[C@H]3CC[C@]12C [SPE_K49031386] | -3.75
O=C(O)C(Cc1ccccc1)NCc1ccc(Cl)cc1 (stereo not shown) [SPE_A57806482] | 2.25
Cc1ccc(N2CCN(CCC3NC(=O)c4ccccc43)CC2)cc1C (stereo not shown) [SPE_A82013137] | -6.23
CCCCCCCCCCCCCCCCO [SPE_K37203094] | 1.52
CCN(CC)C(=O)N1CCN(C)CC1 [SPE_K45542189] | 3.18
CCC(=O)c1ccc(OCC(O)CN2CCN(c3ccccc3)CC2)cc1 (stereo not shown) [SPE_A28958257] | -1.6
CCOc1cccc(NC(=O)c2ccc(N3CCCC3)c(C(F)(F)F)c2)c1 [SPE_K42536037] | -13.1
CCN(C(=O)c1c(O)c2c(Cl)cccc2n(C)c1=O)c1ccccc1 [SPE_K60918217] | -1.53
O=c1c2ccccc2oc2ccccc12 [SPE_K27135764] | 4.69
CCN(CC)CCOC(=O)C(c1ccccc1)C1CCCCC1 (stereo not shown) [SPE_A22267103] | 53.9
CN(C(=O)c1ccc(F)cc1C(F)(F)F)C1CCN(c2nnc(-c3ccnn3C)c3ccccc23)CC1 [SPE_K50498985] | -8
CC[C@H](CO)Nc1nc(NCc2ccccc2)c2ncn(C(C)C)c2n1 [SPE_K07691486] | 5.8
CNC(=O)c1c(C)oc2cc(Oc3ncnc4cc(OC)c(OC)cc34)ccc12 [SPE_K70504253] | 8.27

SMILES | activation at 10 µM [%]
C[C@H](NC(=O)/C(C#N)=C/c1ccc(O)c(O)c1)c1ccccc1 [SPE_K17415526] | -1.61
Cc1ccc2nc(N)nc(O)c2c1Sc1ccncc1 [SPE_K36636143] | 2.73
C[C@]12C=CC(=O)C=C1CC[C@@H]1[C@@H]2CC[C@]2(C)OC(=O)CC[C@@H]12 [SPE_K69636617] | -2.05
COc1cc(-n2c(S)nc3ccccc3c2=O)c(Cl)cc1Cl [SPE_K61128465] | 22
NCC(=O)Nc1ccc(-n2nc(C(F)(F)F)cc2-c2ccc3c(ccc4ccccc43)c2)cc1 [SPE_K90497590] | -14.6
CN(CC[C@@H](Oc1ccc(-c2ccccc2)cc1)c1ccc(F)cc1)CC(=O)O [SPE_K53979406] | -9.75
Cc1ccc(S(=O)(=O)/C=C/C#N)cc1 [SPE_K15025317] | -2.64
Cc1ccc2c(c1CCC(=O)O)CC[C@@H](NS(=O)(=O)c1ccc(Cl)cc1)C2 [SPE_K43975632] | 0.256
C[C@]12CC[C@H](O)C[C@H]1CC[C@@H]1[C@@H]2C[C@@H](O)[C@]2(C)[C@@H](C3=CC(=O)OC3)CC[C@]12O [SPE_K18619710] | -13.9
C=C(C)[C@@H]1CC[C@]2(C(=O)O)CC[C@]3(C)[C@H](CC[C@@H]4[C@@]5(C)CC[C@H](O)C(C)(C)[C@@H]5CC[C@]43C)[C@@H]12 [SPE_K45401373] | -11.4
O=C(Oc1ccccc1C(=O)O)c1ccccc1O [SPE_K48892307] | -11.6
C/C(=C\c1csc(C)n1)[C@@H]1C[C@@H]2O[C@]2(C)CCC[C@H](C)[C@H](O)[C@@H](C)C(=O)C(C)(C)[C@@H](O)CC(=O)N1 [SPE_K03601870] | -10.6
CC[C@@H](CO)NC(=O)[C@@H]1C=C2c3cccc4[nH]cc(c34)C[C@H]2N(C)C1 [SPE_K34685430] | -5.04
Cc1nc(-c2cn3c(n2)-c2ccc(-c4cnn(C(C)(C)C(N)=O)c4)cc2OCC3)n(C(C)C)n1 [SPE_K44844162] | 4.98
C[C@@H]1CN(Cc2ncccn2)C[C@H]1c1nc2c(cnn2C2CCOCC2)c(=O)[nH]1 [SPE_K50031829] | -10.7
COc1ncc2cc(C(=O)Nc3cc(C(=O)NCc4cccc(Cl)c4)ccc3Cl)c(=O)[nH]c2n1 [SPE_K89517477] | -0.459
O=C(Cn1ccnc1[N+](=O)[O-])NCCO [SPE_K96042922] | -3.79
C#C[C@]1(O)CC[C@H]2[C@@H]3CCC4=CC(=O)CCC4=C3C=C[C@@]21CC [SPE_K97472745] | -10.6
Nc1ncc(Cc2ccc(Br)cc2)s1 [SPE_K03808106] | -0.249
CC(O)c1cc(C(=O)N[C@@H](C)Cn2ccc(-c3ccc(C#N)c(Cl)c3)n2)n[nH]1 (stereo partly shown) [SPE_A01259528] | -15.4
C[C@H](NC(=O)/C(C#N)=C/c1cccc(Br)n1)c1ccccc1 [SPE_K05445342] | 3.2

SMILES | activation at 10 µM [%]
Nc1ccn([C@H]2C[C@H](O)[C@@H](CO)O2)c(=O)n1 [SPE_K91822704] | 0.471
COc1c(O)cc2c(c1O)[C@@H]1O[C@H](CO)[C@@H](O)[C@H](O)[C@H]1OC2=O [SPE_K04176066] | 1.1
O=C1Nc2cc(Cl)c(Cl)cc2N2CCNCC12 (stereo not shown) [SPE_A62021152] | -10.8
C[C@@H](C1=C(CCN(C)C)Cc2ccccc21)c1ccccn1 [SPE_K83192048] | 11.3
NC(=O)C1=CN([C@@H]2O[C@H](COP(=O)(O)OP(=O)(O)OC[C@H]3O[C@@H](n4cnc5c(N)ncnc54)[C@H](OP(=O)(O)O)[C@@H]3O)[C@@H](O)[C@H]2O)C=CC1 [SPE_M06409173] | -2.48
O=[N+]([O-])O[C@@H]1CO[C@H]2[C@@H]1OC[C@@H]2O [SPE_K82225283] | -18.1
CC(C)Nc1nc2cc(Cl)c(Cl)cc2n1[C@H]1O[C@@H](CO)[C@H](O)[C@@H]1O [SPE_K59524082] | -6.13
C[C@@H](c1ccc2nccn2c1)n1nnc2ncc(-c3cnn(C)c3)nc21 [SPE_K98028353] | -4.44
Cc1cc2c(cc1C(F)(F)F)N(C(=O)Nc1ccc(Oc3cccnc3C)nc1)CC2 [SPE_K99968849] | 3.28
O=C(O)CCNc1cc(N2CCc3ccccc3CC2)nc(-c2ccccn2)n1 [SPE_K32847255] | -5.77
O=c1c(O)c(-c2cc(O)c(O)c(O)c2)oc2cc(O)cc(O)c12 [SPE_K43149758] | -18.6
CC(=O)c1ccc2c(c1)N(CCCN(C)C)c1ccccc1S2 [SPE_K37814297] | 27.3
O=C(NC[C@H](O)CO)c1ccncc1Nc1ccc(I)cc1F [SPE_K89014967] | -12.6
COc1ccc(NS(=O)(=O)c2ccc(I)cc2)cc1N1CCN(C)CC1 [SPE_K80639402] | 17.6
Cc1cc(N2CCCCC2)nc2ccccc12 [SPE_K80021413] | -1.3
C[N+]12CCC(CC1)C(OC(=O)C(O)(c1ccccc1)c1ccccc1)C2 (stereo not shown) [SPE_A46066006] | 2.01
Cc1ccc(=O)n(-c2ccccc2)c1 [SPE_K96862998] | 4.03
Cc1[nH]c2ccc(F)cc2c1-c1nc2c3cccnc3c3ncccc3c2[nH]1 [SPE_K68003372] | -0.56
COc1ccc(COc2cc3oc(=O)c4cc(C(C)O)ccc4c3cc2OC)cc1 (stereo not shown) [SPE_A50998626] | -7.77
